This is an account of results in ChEMBL document CHEMBL2429725, “New chemotypes for wALADin1-like inhibitors of delta-aminolevulinic acid dehydratase from Wolbachia endobacteria” (Bioorg Med Chem Lett, 2013).

Test [1] in a line: (§1) Inhibition of recombinant Wolbachia endobacteria ALADH using 5-ALA as substrate after 20 mins.
For test [2], the target named is T1, Delta-aminolevulinic acid dehydratase (Homo sapiens, UniProt P13716).
T1 sequence (P13716 whole entry): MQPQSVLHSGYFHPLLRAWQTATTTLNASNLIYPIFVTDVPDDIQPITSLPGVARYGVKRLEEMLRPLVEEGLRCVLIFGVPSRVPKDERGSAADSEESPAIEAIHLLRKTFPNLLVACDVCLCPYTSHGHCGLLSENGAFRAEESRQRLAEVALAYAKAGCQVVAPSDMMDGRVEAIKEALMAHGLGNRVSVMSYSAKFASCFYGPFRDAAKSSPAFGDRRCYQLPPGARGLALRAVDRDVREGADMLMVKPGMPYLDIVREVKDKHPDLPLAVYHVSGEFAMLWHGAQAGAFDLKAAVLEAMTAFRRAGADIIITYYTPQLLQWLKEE
Kind of test: (§2) Inhibition of human ALADH after 20 mins.

Test [3] concerns Wolbachia. Put plainly: Inhibition of recombinant Wolbachia endobacteria ALADH using 5-ALA as substrate after 20 mins relative to control.
Test [4] deals with Wolbachia. The test is described as §1.
In test [5] the target is T2, Delta-aminolevulinic acid dehydratase (Homo sapiens) (UniProt P13716).
T2 sequence (whole entry): T1 sequence (P13716 whole entry)
Described as §2.

Test [6] relates to Wolbachia. Kind of test: Binding affinity to recombinant Wolbachia endobacteria assessed as change in melting temperature at 6.25 uM by thermal shift assay.
Test [7] deals with Wolbachia. Put plainly: Non-competitive inhibition of recombinant Wolbachia endobacteria ALADH using 5-ALA as substrate.
For test [8], the system named is Wolbachia. Put plainly: Binding affinity to recombinant Wolbachia endobacteria assessed as change in melting temperature at 12.5 uM by thermal shift assay.
For test [9], the system named is Wolbachia. Put plainly: Binding affinity to recombinant Wolbachia endobacteria assessed as change in melting temperature at 1.6 uM by thermal shift assay.
The subject of test [10] is Wolbachia. Kind of test: Binding affinity to recombinant Wolbachia endobacteria assessed as change in melting temperature at 100 uM by thermal shift assay.
Test [11] deals with Wolbachia. Put plainly: Non-competitive inhibition of recombinant Wolbachia endobacteria ALADH using 5-ALA as substrate in presence of Mg2+.
Test [12] has as its system Wolbachia. Put plainly: Binding affinity to recombinant Wolbachia endobacteria assessed as change in melting temperature at 25 uM by thermal shift assay.
Test [13] has as its system Wolbachia. Put plainly: Binding affinity to recombinant Wolbachia endobacteria assessed as change in melting temperature at 3.1 uM by thermal shift assay.

Usually IC50 stands for the concentration that gives 50% inhibition. One may read the inhibition as the share of the control response that was lost under treatment. The ΔTm is the shift of the melting midpoint relative to a reference.

Calls of active or inactive are those of the source. The calls are words filed in the database; no cut-off is given here.

Turning to `O=C(O)c1ccc2c(c1)nc(CCNC(=O)c1cccs1)n2Cc1cccc(C(F)(F)F)c1`, the IC50 in test [1] (read-out: IC50) came out at 11.1 µM; in test [2] (read-out: IC50), 740 µM.

For the molecule `O=C(O)c1cc(-c2ccc(Br)cc2)cs1`, the inhibition in test [3] is over 30%. Further, the IC50 in [1] (read-out: IC50) amounted to 299 µM; in test [2] (read-out: IC50), 99.7 µM.

As for `CCn1c(CSc2nnc(-c3cccs3)n2Cc2ccccc2)nc2cc(C(=O)O)ccc21`, the inhibition entry in test [4] and in test [5] was “inactive” throughout.

As for `O=C(O)c1ccc2c(c1)n(Cc1ncccn1)c(=O)n2Cc1ccc(F)cc1`, the IC50 was over 1000 µM in test [1] (read-out: IC50) and 119 µM in test [2] (read-out: IC50). The inhibition in test [5] was over 25%.

Take `CC(C)(C)C(=O)N1CCc2nc3ccccc3c(C(=O)O)c2C1`: the IC50 entry in [1] is “Not Active”.

Consider `COc1ccc(S(=O)(=O)N2CCc3nc4ccccc4c(C(=O)O)c3C2)cc1`, for which, in test [1], the IC50 result is given as “Not Active”.

Turning to `Cc1ccsc1C(=O)NCCc1ccc(C(=O)O)cc1`, the inhibition entry in test [4] and in test [5] was “inactive” in each case.

`O=C(O)c1cc(-c2ccc(Cl)cc2)cs1`: the inhibition in test [3] is over 30%. Further, the IC50 in test [1] (read-out: IC50) is 521 µM; in test [2] (read-out: IC50) it was 85.3 µM.

Turning to `O=C(O)c1ccc2c(c1)n(CCN1CCCC1)c(=O)n2Cc1ccc(F)cc1`, the figures for the IC50 in test [1] (read-out: IC50) and in test [2] (read-out: IC50) were 340 µM and over 1000 µM, respectively. The inhibition in test [5] was over 25%.

`O=C(O)c1c2c(nc3ccccc13)CCN(CC(O)COc1ccccc1)C2` (stereo not given): the IC50 entry in [1] is reported as “Not Active”.

`CCn1c(CSc2ccc(NC(C)=O)cc2)nc2cc(C(=O)O)ccc21`: the inhibition entry in test [4] and in test [5] was “inactive” throughout.

Regarding `CC(NC(=O)Cc1ccccc1C(=O)O)C1Nc2ccccc2N1` (stereo not given), the inhibition result in [4] and in test [5] was “inactive” each time.

For the molecule `O=C(c1cccc(C(F)(F)F)c1)N1CCc2nc3ncccc3cc2C1`, the IC50 result in test [1] is “Not Active”.

`O=C(O)c1c2c(nc3ccccc13)CCN(Cc1ccccc1)C2`: in [1], the IC50 entry is listed as “Not Active”.

On to `O=C(O)CCNC(=O)C(Cc1ccccc1)NC(=O)c1cccs1` (stereo not given), for which the inhibition result in test [4] and in [5] was “inactive” in each case.

In the case of `O=C(N[C@@H](Cc1ccccc1)C(=O)O)c1cccs1`, the inhibition result in test [4] and in test [5] was “inactive” in each case.

On to `O=C(O)c1ccc2c(c1)n(CC1CCNC1)c(=O)n2Cc1ccc(F)cc1` (stereo not given), for which the inhibition entry in test [4] and in [5] was “inactive” each time.

Regarding `O=C(O)c1c2c(nc3ccccc13)CCNC2`, the IC50 entry in test [1] is “Not Active”.

Turning to `O=C(O)c1c2c(nc3ccccc13)CCN(CC(O)c1ccccc1)C2` (stereo not given), the half-maximal inhibitory concentration (IC50) result in test [1] is on record as “Not Active”.

Take `CN1CCc2nc3ccccc3c(C(=O)O)c2C1`: the IC50 result in [1] is on record as “Not Active”.

As for `O=C(O)c1c2c(nc3ccccc13)CCN(C(=O)c1cccc(C(F)(F)F)c1)C2`, the shift in melting temperature (ΔTm) is 1.9 °C in test [6]; 2.8 °C in [8]; 0.7 °C in test [9]; 5.5 °C in test [10]; 3 °C in test [12]; 1.2 °C in test [13]. The inhibition entry in [7] and in [11] was “Active” in each case. The inhibition in [3] is over 30%. Besides, the IC50 in test [1] (read-out: IC50) was 8.1 µM; in [2] it was “Not Active”.

Regarding `O=C(O)c1c2c(nc3ccccc13)CCN(S(=O)(=O)c1ccccc1)C2`, the IC50 entry in [1] was “Not Active”.

Take `Cn1c(CCNC(=O)c2cccs2)nc2cc([N+](=O)[O-])ccc21`: the inhibition entry in test [4] and in test [5] was “inactive” throughout.
